Test results reported in ChEMBL document CHEMBL3994622, “Design and synthesis of new RAF kinase-inhibiting antiproliferative quinoline derivatives. Part 2: Diarylurea derivatives” (Eur J Med Chem, 2017).

Assays:
[1] = target: Mitogen-activated protein kinase 14 (Homo sapiens) (UniProt Q16539); assay: Inhibition of human MAPK p38allpha at 10 uM using myelin basic protein as substrate in presence of [33P]ATP by Hotspot assay relative to control
[2] = target: Epidermal growth factor receptor (Homo sapiens) (UniProt P00533); assay: Inhibition of human EGFR at 10 uM using poly[Glu:Tyr] (4:1) as substrate in presence of [33P]ATP by Hotspot assay relative to control
Sequence of Epidermal growth factor receptor (Homo sapiens) (P00533 whole entry): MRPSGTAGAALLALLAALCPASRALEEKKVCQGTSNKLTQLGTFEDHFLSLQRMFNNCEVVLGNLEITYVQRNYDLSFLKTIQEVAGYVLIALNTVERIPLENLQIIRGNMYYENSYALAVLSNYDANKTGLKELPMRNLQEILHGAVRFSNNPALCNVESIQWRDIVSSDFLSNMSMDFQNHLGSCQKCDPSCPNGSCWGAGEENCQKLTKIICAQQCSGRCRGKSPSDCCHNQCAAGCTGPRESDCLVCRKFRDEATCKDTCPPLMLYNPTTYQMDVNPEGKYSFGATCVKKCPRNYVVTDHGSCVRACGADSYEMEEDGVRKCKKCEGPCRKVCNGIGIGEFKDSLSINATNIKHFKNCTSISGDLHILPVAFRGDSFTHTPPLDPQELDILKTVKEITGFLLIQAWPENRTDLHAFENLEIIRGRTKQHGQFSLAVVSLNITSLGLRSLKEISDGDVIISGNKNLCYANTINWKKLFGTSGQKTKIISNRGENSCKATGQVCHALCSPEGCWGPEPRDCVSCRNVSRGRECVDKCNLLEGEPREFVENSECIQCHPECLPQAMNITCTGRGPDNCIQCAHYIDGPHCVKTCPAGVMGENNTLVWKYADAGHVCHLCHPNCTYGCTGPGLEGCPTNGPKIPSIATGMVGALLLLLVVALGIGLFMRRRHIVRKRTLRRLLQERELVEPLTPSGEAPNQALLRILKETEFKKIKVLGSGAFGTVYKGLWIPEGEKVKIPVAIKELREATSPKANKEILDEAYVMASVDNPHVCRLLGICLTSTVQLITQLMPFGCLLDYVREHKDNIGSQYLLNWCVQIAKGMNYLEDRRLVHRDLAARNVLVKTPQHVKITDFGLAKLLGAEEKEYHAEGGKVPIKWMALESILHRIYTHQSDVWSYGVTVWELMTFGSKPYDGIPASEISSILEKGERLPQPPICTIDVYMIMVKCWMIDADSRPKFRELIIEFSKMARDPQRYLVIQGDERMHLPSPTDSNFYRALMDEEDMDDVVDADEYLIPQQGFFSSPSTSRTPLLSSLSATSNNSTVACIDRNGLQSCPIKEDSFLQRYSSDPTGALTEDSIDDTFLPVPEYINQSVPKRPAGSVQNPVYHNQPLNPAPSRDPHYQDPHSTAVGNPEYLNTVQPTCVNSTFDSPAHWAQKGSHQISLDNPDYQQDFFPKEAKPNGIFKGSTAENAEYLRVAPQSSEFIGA

MDA-MB-468 = assay: Growth inhibition of human MDA-MB-468 cells assessed as cell growth at 0.1 uM incubated for 48 hrs by sulforhodamine B assay relative to control; assay type: functional; conditions: MDA-MB-468, 48 h, read-out: Activity
SNB-19 = assay: Growth inhibition of human SNB19 cells assessed as cell growth at 0.5 uM incubated for 48 hrs by sulforhodamine B assay relative to control; assay type: functional; conditions: SNB-19, 48 h, read-out: Activity
U-251 = assay: Growth inhibition of human U251 cells assessed as cell growth at 0.5 uM incubated for 48 hrs by sulforhodamine B assay relative to control; assay type: functional; conditions: U-251, 48 h, read-out: Activity
MCF7 [3] = assay: Growth inhibition of human MCF7 cells assessed as cell growth at 50 uM incubated for 48 hrs by sulforhodamine B assay relative to control; assay type: functional; conditions: MCF7, 48 h, read-out: Activity
LOX IMVI = assay: Growth inhibition of human LOXIMVI cells assessed as cell growth at 0.05 uM incubated for 48 hrs by sulforhodamine B assay relative to control; assay type: functional; conditions: read-out: Activity
A498 = assay: Growth inhibition of human A498 cells assessed as cell growth at 0.05 uM incubated for 48 hrs by sulforhodamine B assay relative to control; assay type: functional; conditions: A498, 48 h, read-out: Activity
NCI/ADR-RES = assay: Growth inhibition of human NCI/ADR-RES cells assessed as cell growth at 0.5 uM incubated for 48 hrs by sulforhodamine B assay relative to control; assay type: functional; conditions: read-out: Activity
A549 = assay: Growth inhibition of human A549/ATCC cells assessed as cell growth at 0.5 uM incubated for 48 hrs by sulforhodamine B assay relative to control; assay type: functional; conditions: A549, 48 h, read-out: Activity
KM12 = assay: Growth inhibition of human KM12 cells assessed as cell growth at 0.005 uM incubated for 48 hrs by sulforhodamine B assay relative to control; assay type: functional; conditions: KM12, 48 h, read-out: Activity
EKVX = assay: Growth inhibition of human EKVX cells assessed as cell growth at 50 uM incubated for 48 hrs by sulforhodamine B assay relative to control; assay type: functional; conditions: read-out: Activity
MCF7 [4] = assay: Growth inhibition of human MCF7 cells assessed as cell growth at 0.05 uM incubated for 48 hrs by sulforhodamine B assay relative to control; assay type: functional; conditions: MCF7, 48 h, read-out: Activity
SF-295 [5] = assay: Growth inhibition of human SF295 cells assessed as cell growth at 0.05 uM incubated for 48 hrs by sulforhodamine B assay relative to control; assay type: functional; conditions: SF-295, 48 h, read-out: Activity
OVCAR-4 = assay: Growth inhibition of human OVCAR4 cells assessed as cell growth at 0.05 uM incubated for 48 hrs by sulforhodamine B assay relative to control; assay type: functional; conditions: OVCAR-4, 48 h, read-out: Activity
UO-31 [6] = assay: Growth inhibition of human UO31 cells assessed as cell growth at 0.5 uM incubated for 48 hrs by sulforhodamine B assay relative to control; assay type: functional; conditions: UO-31, 48 h, read-out: Activity
SF-539 = assay: Growth inhibition of human SF539 cells assessed as cell growth at 0.005 uM incubated for 48 hrs by sulforhodamine B assay relative to control; assay type: functional; conditions: SF-539, 48 h, read-out: Activity
OVCAR-3 = assay: Growth inhibition of human OVCAR3 cells assessed as cell growth at 5 uM incubated for 48 hrs by sulforhodamine B assay relative to control; assay type: functional; conditions: OVCAR-3, 48 h, read-out: Activity
K562 [7] = assay: Growth inhibition of human K562 cells assessed as cell growth at 50 uM incubated for 48 hrs by sulforhodamine B assay relative to control; assay type: functional; conditions: K562, 48 h, read-out: Activity
UO-31 [8] = assay: Growth inhibition of human UO31 cells assessed as cell growth at 0.005 uM incubated for 48 hrs by sulforhodamine B assay relative to control; assay type: functional; conditions: UO-31, 48 h, read-out: Activity
HCC 2998 [9] = assay: Growth inhibition of human HCC2998 cells assessed as cell growth at 0.5 uM incubated for 48 hrs by sulforhodamine B assay relative to control; assay type: functional; conditions: HCC 2998, 48 h, read-out: Activity
T47D = assay: Growth inhibition of human T47D cells assessed as cell growth at 50 uM incubated for 48 hrs by sulforhodamine B assay relative to control; assay type: functional; conditions: read-out: Activity
COLO 205 = assay: Growth inhibition of human COLO205 cells assessed as cell growth at 0.05 uM incubated for 48 hrs by sulforhodamine B assay relative to control; assay type: functional; conditions: COLO 205, 48 h, read-out: Activity
SR = assay: Growth inhibition of human SR cells assessed as cell growth at 50 uM incubated for 48 hrs by sulforhodamine B assay relative to control; assay type: functional; conditions: read-out: Activity
SK-OV-3 = assay: Growth inhibition of human SKOV3 cells assessed as cell growth at 50 uM incubated for 48 hrs by sulforhodamine B assay relative to control; assay type: functional; conditions: SK-OV-3, 48 h, read-out: Activity
MOLT-4 = assay: Growth inhibition of human MOLT4 cells assessed as cell growth at 0.5 uM incubated for 48 hrs by sulforhodamine B assay relative to control; assay type: functional; conditions: MOLT-4, 48 h, read-out: Activity
SN12C = assay: Growth inhibition of human SN12C cells assessed as cell growth at 50 uM incubated for 48 hrs by sulforhodamine B assay relative to control; assay type: functional; conditions: read-out: Activity
K562 [10] = assay: Growth inhibition of human K562 cells assessed as cell growth at 0.005 uM incubated for 48 hrs by sulforhodamine B assay relative to control; assay type: functional; conditions: K562, 48 h, read-out: Activity
NCI-H522 = assay: Growth inhibition of human NCI-H522 cells assessed as cell growth at 50 uM incubated for 48 hrs by sulforhodamine B assay relative to control; assay type: functional; conditions: NCI-H522, 48 h, read-out: Activity
NCI-H460 = assay: Growth inhibition of human NCI-H460 cells assessed as cell growth at 50 uM incubated for 48 hrs by sulforhodamine B assay relative to control; assay type: functional; conditions: NCI-H460, 48 h, read-out: Activity
SW-620 = assay: Growth inhibition of human SW620 cells assessed as cell growth at 50 uM incubated for 48 hrs by sulforhodamine B assay relative to control; assay type: functional; conditions: SW-620, 48 h, read-out: Activity
SF-295 [11] = assay: Growth inhibition of human SF295 cells assessed as cell growth at 0.005 uM incubated for 48 hrs by sulforhodamine B assay relative to control; assay type: functional; conditions: SF-295, 48 h, read-out: Activity
MDA-MB-435 = assay: Growth inhibition of human MDA-MB-435 cells assessed as cell growth at 0.5 uM incubated for 48 hrs by sulforhodamine B assay relative to control; assay type: functional; conditions: MDA-MB-435, 48 h, read-out: Activity
HCC 2998 [12] = assay: Growth inhibition of human HCC2998 cells assessed as cell growth at 5 uM incubated for 48 hrs by sulforhodamine B assay relative to control; assay type: functional; conditions: HCC 2998, 48 h, read-out: Activity

Sequence of Mitogen-activated protein kinase 14 (Homo sapiens) (Q16539 whole entry): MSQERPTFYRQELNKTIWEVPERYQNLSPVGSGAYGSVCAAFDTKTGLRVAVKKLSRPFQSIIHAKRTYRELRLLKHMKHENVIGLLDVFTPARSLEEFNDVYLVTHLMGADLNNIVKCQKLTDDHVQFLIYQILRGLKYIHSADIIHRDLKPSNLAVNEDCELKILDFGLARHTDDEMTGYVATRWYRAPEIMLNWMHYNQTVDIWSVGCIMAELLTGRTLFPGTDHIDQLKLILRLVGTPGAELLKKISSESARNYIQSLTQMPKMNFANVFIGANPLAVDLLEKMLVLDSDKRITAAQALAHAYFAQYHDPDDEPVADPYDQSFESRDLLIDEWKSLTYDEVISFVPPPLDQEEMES

Work on COc1cc2cc(Oc3ccc(NC(=O)Nc4ccc(Cl)c(C(F)(F)F)c4)cc3)c(C)nc2cc1OC yielded an inhibition [1] of 56.4% and an inhibition [2] of -0.3%.
COc1cc2cc(Oc3ccc(NC(=O)Nc4cc(C(F)(F)F)cc(C(F)(F)F)c4)cc3)c(C)nc2cc1OC was tested, and the growth at 0.1 µM (MDA-MB-468) was 104%.
COc1cc2cc(Oc3ccc(NC(=O)Nc4cccc(C(F)(F)F)c4)cc3)c(C)nc2cc1OC gave a growth at 0.5 µM (SNB-19) of 96%, a growth at 0.5 µM (U-251) of 94% and a growth at 50 µM (MCF7 [3]) of -89%. The growth at 0.05 µM (LOX IMVI) was 96%, the growth at 0.05 µM (A498) was 106% and the growth at 0.5 µM (NCI/ADR-RES) was 95%. The growth at 0.5 µM (A549) was 86%, the growth at 0.005 µM (KM12) was 90% and the growth at 50 µM (EKVX) was -48%. For the same compound, the growth at 0.05 µM (MCF7 [4]) was 91%, the growth at 0.05 µM (SF-295 [5]) was 91% and the growth at 0.05 µM (OVCAR-4) was 95%. For the same compound, the growth at 0.5 µM (UO-31 [6]) was 106%, the growth at 0.005 µM (SF-539) was 104% and the growth at 5 µM (OVCAR-3) was 15%. It also gave a growth at 50 µM (K562 [7]) of -16%, a growth at 0.005 µM (UO-31 [8]) of 90% and a growth at 0.5 µM (HCC 2998 [9]) of 109%. For the same compound, the growth at 50 µM (T47D) was -49%, the growth at 0.05 µM (COLO 205) was 94% and the growth at 50 µM (SR) was -57%. The growth at 50 µM (SK-OV-3) was -37%, the growth at 0.5 µM (MOLT-4) was 95% and the growth at 50 µM (SN12C) was -21%. The growth at 0.005 µM (K562 [10]) was 102%, the growth at 50 µM (NCI-H522) was -61% and the growth at 50 µM (NCI-H460) was -60%. The growth at 50 µM (SW-620) was -37%, the growth at 0.005 µM (SF-295 [11]) was 90% and the growth at 0.5 µM (MDA-MB-435) was 89%. The growth at 5 µM (HCC 2998 [12]) was 26%.
